In the OligoGym collection:
After the bases stand the sugars from the 5' end (letter, count) and the backbone: PS all phosphorothioate, else s phosphorothioate and o phosphodiester by linkage. Methylation of C is not given here. e = 2'-O-(2-methoxyethyl) (MOE); k = constrained ethyl (cEt); d = 2'-deoxy (DNA); m = 2'-O-methyl

Target: HSD17B13
Details: ASO, HepaRG

Sequence | target mRNA inhibition (1 µM) [%] | further results
AATCTAGCAACCTCTA (sugars k3 d10 k3, PS) | 22 | 
GCTTAAATGTTTAACC (sugars k3 d10 k3, PS) | 67 | 
TATTTCGCTACTGTAG (sugars k3 d10 k3, PS) | 48 | 
TATTAGAAGTCAGCCC (sugars k3 d1 m1 d8 k3, PS) | 29 | 
AATAGCCATGTAGCTA (sugars k3 d10 k3, PS) | 28 | 
CAGTAGATTTGGTAGA (sugars k3 d10 k3, PS) | 49 | 
GCTGTACAGTAGGCAG (sugars k3 d10 k3, PS) | 66 | 
AGAATAGAGTTGCACC (sugars k3 d9 k3 e1, PS) | 58 | 
CTTTGAGACTCTTGTT (sugars k3 d9 k3 e1, PS) | 57 | 
TGTGTTCTTGTTGATA (sugars k3 d10 k3, PS) | 69 | 
TTAAUGCCACCCTACC (sugars k3 d1 m1 d8 k3, PS) | 8 | 
TCGGGAAGTTTAGACA (sugars k3 d10 k3, PS) | 43 | 
CTACTTGAACAGTCTT (sugars k3 d10 k3, PS) | 80 | target mRNA inhibition (0.02 µM): 8%; target mRNA inhibition (0.078 µM): 23%; target mRNA inhibition (0.313 µM): 49%; target mRNA inhibition (1.25 µM): 79%; target mRNA inhibition (5 µM): 97%
ATGTATCTTATAAGAC (sugars k3 d10 k3, PS) | 0 | 
CACTAATGAATCATGA (sugars k3 d10 k3, PS) | 25 | 
TGATTACAGCATCAAG (sugars k3 d10 k3, PS) | 69 | 
GTTACATTACAGCCTT (sugars k3 d10 k3, PS) | 71 | target mRNA inhibition (0.02 µM): 0%; target mRNA inhibition (0.078 µM): 18%; target mRNA inhibition (0.313 µM): 50%; target mRNA inhibition (1.25 µM): 73%; target mRNA inhibition (5 µM): 86%
TAGCTTTTGTCCACCT (sugars kkdddddddddkekek, PS) | 71 | target mRNA inhibition (0.02 µM): 0%; target mRNA inhibition (0.078 µM): 3%; target mRNA inhibition (0.313 µM): 29%; target mRNA inhibition (1.25 µM): 53%; target mRNA inhibition (5 µM): 48%
AATTACTCCGTTCTGC (sugars k3 d10 k3, PS) | 6 | 
ATGTGAAGAGCTGGTA (sugars kkdddddddddkekek, PS) | 54 | 
CCATAATCTGTGATTA (sugars k3 d10 k3, PS) | 9 | 
ATAAACATAGGCTTAG (sugars k3 d10 k3, PS) | 41 | 
ATGTCCTAGGATGTTG (sugars k3 d10 k3, PS) | 50 | 

Sequence | target mRNA inhibition (1 µM) [%] | further results
TAGTCTTCAGCAAAGT (sugars kkdddddddddkekek, PS) | 35 | 
ATATGTCCAGGTTGAG (sugars k3 d10 k3, PS) | 61 | 
AGTTGCACCGTTTTGG (sugars k3 d9 k3 e1, PS) | 43 | 
CAGAATAGAGTTGCAC (sugars k3 d10 k3, PS) | 50 | 
TCCATCTATCAGACTT (sugars k3 d10 k3, PS) | 42 | 
GTGGCCGCACACTGAA (sugars k3 d10 k3, PS) | 41 | 
AAATATGTCCAGGTTG (sugars k3 d1 m1 d8 k3, PS) | 63 | 
GTTCAACTGAACCTCT (sugars k3 d10 k3, PS) | 55 | 
AGAAGTATGTGAACTC (sugars k3 d10 k3, PS) | 41 | 
AGAGAGCGATAGATCT (sugars k3 d10 k3, PS) | 15 | 
AACCTTCCCTGTGTAA (sugars k3 d10 k3, PS) | 38 | 
TGATGGTGATCAGAAG (sugars k3 d10 k3, PS) | 0 | 
CCAATTTAAATCAGGC (sugars k3 d10 k3, PS) | 73 | target mRNA inhibition (0.02 µM): 0%; target mRNA inhibition (0.078 µM): 17%; target mRNA inhibition (0.313 µM): 52%; target mRNA inhibition (1.25 µM): 72%; target mRNA inhibition (5 µM): 89%
GTAATCACAAGTAAGG (sugars k3 d10 k3, PS) | 70 | target mRNA inhibition (0.02 µM): 0%; target mRNA inhibition (0.078 µM): 12%; target mRNA inhibition (0.313 µM): 32%; target mRNA inhibition (1.25 µM): 70%; target mRNA inhibition (5 µM): 93%
TGACAATGGTTGATAG (sugars k3 d10 k3, PS) | 16 | 
CAATAGTACTATAGTA (sugars k3 d10 k3, PS) | 14 | 
GGCTAAACCCTGGAGC (sugars k3 d10 k3, PS) | 36 | 
TAGAATAGTCTTCAGC (sugars k3 d10 k3, PS) | 70 | target mRNA inhibition (0.02 µM): 0%; target mRNA inhibition (0.078 µM): 0%; target mRNA inhibition (0.313 µM): 16%; target mRNA inhibition (1.25 µM): 52%; target mRNA inhibition (5 µM): 77%
TTGGTAAGTATTCCAT (sugars k3 d10 k3, PS) | 20 | 
TCTTTTTATAGACTGG (sugars k3 d10 k3, PS) | 82 | target mRNA inhibition (0.02 µM): 0%; target mRNA inhibition (0.078 µM): 0%; target mRNA inhibition (0.313 µM): 35%; target mRNA inhibition (1.25 µM): 55%; target mRNA inhibition (5 µM): 90%
GCACTAAAGGTTTCTG (sugars k3 d10 k3, PS) | 75 | target mRNA inhibition (0.02 µM): 24%; target mRNA inhibition (0.078 µM): 39%; target mRNA inhibition (0.313 µM): 58%; target mRNA inhibition (1.25 µM): 79%; target mRNA inhibition (5 µM): 90%
CTGGTAAAGGTAAGGG (sugars k3 d10 k3, PS) | 58 | 
AGTCUTAAACCTTCCC (sugars k3 d1 m1 d8 k3, PS) | 52 | 

Sequence | target mRNA inhibition (1 µM) [%] | further results
TGATGTAGTGGGAGTC (sugars k3 d9 k3 e1, PS) |  | target mRNA inhibition (0.02 µM): 5%; target mRNA inhibition (0.078 µM): 0%; target mRNA inhibition (0.313 µM): 36%; target mRNA inhibition (1.25 µM): 62%; target mRNA inhibition (5 µM): 74%
CGTTATAAGTTTCATG (sugars k3 d10 k3, PS) | 33 | 
CCGTTATAAGTTTCAT (sugars k3 d10 k3, PS) | 54 | 
CCTTAGAGTGAATCAT (sugars k3 d10 k3, PS) | 65 | 
CAAGTAGGAGTAGATG (sugars k3 d10 k3, PS) | 5 | 
CACATAGCTAACTCAG (sugars k3 d10 k3, PS) | 42 | 
CTACTTGAACAGTCTT (sugars k3 d9 k3 e1, PS) | 71 | 
AAACCTTCCCTGTGTA (sugars k3 d10 k3, PS) | 34 | 
TTAATCATGGGACAGG (sugars k3 d10 k3, PS) | 27 | 
GTATTCCATCTATCAG (sugars kkdddddddddkekek, PS) | 48 | 
GAGGGTCCACTTTTGG (sugars k3 d10 k3, PS) | 23 | 
ATGTAGTGTTTACAAG (sugars k3 d10 k3, PS) | 58 | 
GATTGGAATGCTACTT (sugars kkkddddkddddkkke, PS) | 59 | 
ATCTTAAGATACCCAG (sugars k3 d10 k3, PS) | 70 | 
GATGCTCCATAATAAT (sugars k3 d9 k3 e1, PS) | 15 | 
GATGGTAAGGAGTAGT (sugars k3 d10 k3, PS) | 28 | 
CATTATTCACCACGAT (sugars k3 d10 k3, PS) | 33 | 
CATAACTTCATAGTGG (sugars kkdddddddddkekek, PS) | 15 | 
ACTCCGTTATAAGTTT (sugars k3 d10 k3, PS) | 42 | 
TGACAATGGTTGCCAC (sugars k3 d1 m1 d8 k3, PS) | 55 | 
CTCTATAAAATCAATC (sugars k3 d10 k3, PS) | 0 | 
TAGAGTGAATCATTCA (sugars k3 d10 k3, PS) | 75 | target mRNA inhibition (0.02 µM): 16%; target mRNA inhibition (0.078 µM): 33%; target mRNA inhibition (0.313 µM): 60%; target mRNA inhibition (1.25 µM): 84%; target mRNA inhibition (5 µM): 92%
GAGTTATTGTAGGGAT (sugars k3 d10 k3, PS) | 69 | 

Sequence | target mRNA inhibition (1 µM) [%] | further results
GTACTATAGTATTTAC (sugars k3 d10 k3, PS) | 27 | 
TATCTTATAAGACTAT (sugars k3 d10 k3, PS) | 43 | 
AACCTAATAACTACAT (sugars k3 d10 k3, PS) | 0 | 
TAGCTAAGGGAGAGTG (sugars k3 d10 k3, PS) | 9 | 
GCATTGATTCGAAACT (sugars k3 d10 k3, PS) | 66 | 
TTTTTATTGGGCCCAA (sugars k3 d10 k3, PS) | 51 | 
CTTACCTTGTGCTTGG (sugars k3 d10 k3, PS) | 34 | 
GTTATACAGAAGACAG (sugars k3 d10 k3, PS) | 54 | 
GATCTAGAACACTTGC (sugars k3 d10 k3, PS) | 27 | 
CAGCATTGATTCGAAA (sugars k3 d10 k3, PS) | 69 | target mRNA inhibition (0.02 µM): 2%; target mRNA inhibition (0.078 µM): 0%; target mRNA inhibition (0.313 µM): 26%; target mRNA inhibition (1.25 µM): 56%; target mRNA inhibition (5 µM): 65%
TCTAAACTAGTGGTAA (sugars k3 d10 k3, PS) | 24 | 
TGTGATTGAGTTCTCC (sugars k3 d9 k3 e1, PS) | 52 | 
TAGAGGGTCCACTTTT (sugars k3 d10 k3, PS) | 36 | 
TACCAGAGCATTCATC (sugars k3 d10 k3, PS) | 55 | 
TAATACATTAGCAAGC (sugars k3 d10 k3, PS) | 33 | 
TGCTAAGTAGTAATTC (sugars k3 d10 k3, PS) | 32 | 
TAATACATTAGCAAGC (sugars kkdddddddddkekek, PS) | 34 | 
GTTTTCGGCACTCAGC (sugars k3 d10 k3, PS) | 51 | 
CACACTAATGAATCAT (sugars k3 d10 k3, PS) | 30 | 
GAGAAGGCGGTATCAT (sugars k3 d10 k3, PS) | 48 | 
CACTGGATGGATTTCT (sugars k3 d10 k3, PS) | 72 | 
GCATGGCTACAGATTG (sugars k3 d9 k3 e1, PS) | 67 | 
TAATAGCCAGTACAGT (sugars k3 d10 k3, PS) | 64 | 
